The subject of assay [1] is NEO1A (RNA, aptamer) GGACUGGGCGAGAAGUUUAGUCC
Nature of the assay: ITC. The note with it: for Kd: buffer IC (approximates intracellular salt; composition not shown), buffer IC, 25 °C.

Assay [2] has as its system 16S (16S rRNA Decoding region) (RNA, rRNA) GGCGUCACACCUUCGGGUGAAGUCGCC
As to conditions: column head extracted as (M), μ lost.

For assay [3], the system named is NEO4A (RNA, aptamer) CUUUGCGAUGUCCUUUAAUGGUCCGCGAGG
The assay is described as follows: ITC. The note with it: buffer IC (approximates intracellular salt; composition not shown), 25 °C.

Assay [4] relates to TOB3A (RNA, aptamer) GGCACGAGGUUUAGCUACACUCGUGCC
The note with it: column head extracted as (M), μ lost.

Assay [5] deals with TSM (Thymidylate Synthase mRNA region) (RNA, mRNA element) CCCCCCCGCCGCGCCAUGCCUGUGGCCGGUCGG
The note with it: column head extracted as (M), μ lost.

With `CN(C)[C@@H]1C(=O)C(C(N)=O)=C(O)[C@@]2(O)C(=O)C3=C(O)c4c(O)cccc4[C@@](C)(O)[C@H]3C[C@@H]12`, in assay [1] (20 μM aptamer in cell, tetracycline concentration not stated), the binding entry is recorded as “no”.
With `CN[C@@H]1[C@@H](O)[C@@H](O[C@@H]2[C@@H](O)[C@H](O[C@H]3O[C@H]([C@@H](C)O)[C@@H](O)[C@H](O)[C@H]3N)[C@@H](N)C[C@H]2N)OC[C@]1(C)O`, the dissociation constant Kd in assay [1] (N = 5) was 26 ± 9.3 µM.
As to `NC[C@@H]1O[C@H](O[C@H]2[C@@H](O)[C@H](O[C@@H]3[C@@H](O)[C@H](N)C[C@H](N)[C@H]3O[C@H]3O[C@H](CN)[C@@H](O)[C@H](O)[C@H]3N)O[C@@H]2CO)[C@H](N)[C@@H](O)[C@@H]1O`, the “Dissociation Constants” value in assay [2] came to 1.93e-06 ± 5.8e-07 M; in assay [4], 2.2e-06 ± 5e-07 M; in assay [5], 8.8e-07 ± 1.1e-07 M. Also, the dissociation constant Kd in assay [3] (N = 3) was 0.099 ± 0.036 µM; in assay [1] (N = 8) it was 0.29 ± 0.054 µM.
Take `NC[C@@H]1O[C@H](O[C@H]2[C@@H](O)[C@H](O[C@@H]3[C@@H](O)[C@H](N)C[C@H](N)[C@H]3O[C@H]3O[C@H](CO)[C@@H](O)[C@H](O)[C@H]3N)O[C@@H]2CO)[C@H](N)[C@@H](O)[C@@H]1O`: the “Dissociation Constants” value was 5.31e-06 ± 1.85e-06 M in assay [2], 1.72e-05 ± 1.96e-06 M in assay [4] and 6.29e-06 ± 3.49e-06 M in assay [5]. Also, the Kd in assay [1] (N = 5) turned out to be 1.4 ± 0.19 µM.
Regarding `NC[C@H]1O[C@H](O[C@H]2[C@H](O)[C@@H](O[C@H]3O[C@H](CO)[C@@H](O)[C@H](N)[C@H]3O)[C@H](N)C[C@@H]2N)[C@H](N)C[C@@H]1O`, the “Dissociation Constants” value amounted to 1.03e-05 ± 3.87e-06 M in assay [2], 2.4e-07 ± 1e-07 M in assay [4] and 5.75e-06 ± 1.87e-06 M in assay [5]. Further, the Kd in assay [1] (N = 3) amounted to 4.8 ± 0.95 µM.
In the case of `NC[C@H]1O[C@H](O[C@H]2[C@H](O)[C@@H](O[C@H]3O[C@H](CO)[C@@H](O)[C@H](N)[C@H]3O)[C@H](N)C[C@@H]2N)[C@H](N)[C@@H](O)[C@@H]1O`, the “Dissociation Constants” value in assay [2] stood at 8.9e-06 ± 3.54e-06 M; in assay [4], 2.43e-06 ± 1.37e-06 M; in assay [5], 6.5e-06 ± 3.2e-06 M. Further, the Kd in assay [1] (N = 5) was found to be 0.75 ± 0.26 µM.
Regarding `NC[C@H]1O[C@H](O[C@H]2[C@H](O)[C@@H](O[C@H]3O[C@H](CO)[C@@H](O)[C@H](N)[C@H]3O)[C@H](N)C[C@@H]2N)[C@H](O)[C@@H](O)[C@@H]1O`, the entries for the “Dissociation Constants” value in assay [2], in assay [4] and in assay [5] were 3.71e-05 ± 4.38e-06 M, 7.38e-05 ± 3.96e-06 M and 1.03e-05 ± 6.65e-06 M, respectively. The values for the Kd in assay [3] (N = 2) and in assay [1] (N = 3) were 10.7 ± 4.2 µM and 43 ± 3.6 µM, respectively.

Source of the values: publication PMC6200808 (2018).
